Here are results for ten compounds from ChEMBL document CHEMBL1201862, “PubChem BioAssay data set” (2004).

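Following 48 hours of exposure in 96-well plates, responses at five concentrations were used to interpolate endpoints linearly. GI50 is the concentration that inhibits growth by half.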 The source made the active and inactive calls. Cut-off read from the data, not from the text of the source: active = GI50 up to about 1.1 µM and inactive = higher.

Among the test systems are OVCAR-8; MDA-N; HT-29; A549; M14; CAKI-1; SF-295; RPMI-8226; Hs-578T; KM12; IGROV-1; HOP-62; SK-MEL-5; MDA-MB-231; LOX IMVI; DU-145; UO-31; NCI-H226; SR; SK-OV-3.
Holding throughout (experiment): inhibition of tumour cell growth, NCI panel, 48 h

Consider `O=c1[nH]nc(-c2ccccc2)n1-c1ccncc1`, for which the GI50 with OVCAR-8, in the experiment with MDA-N, in the experiment on HT-29, in the experiment with A549, in the experiment with M14 and with CAKI-1 was > 100 µM (inactive) in each case. The GI50 in the experiment with SF-295, with RPMI-8226, in the experiment with Hs-578T, in the experiment on KM12, in the experiment with IGROV-1 and in the experiment on HOP-62 was > 100 µM (inactive) each time. The GI50 in the experiment on SK-MEL-5, in the experiment with MDA-MB-231, in the experiment with LOX IMVI, with DU-145, with UO-31 and in the experiment with NCI-H226 was > 100 µM (inactive) in each case. For the same compound, the GI50 in the experiment on SR was > 100 µM (inactive).

Consider `O=C1C(Br)=CC2(C=C1Br)CCNC1=C2C(=O)c2[nH]cnc2C1=O`, for which the GI50 was 16.8 µM (inactive) in the experiment on OVCAR-8; 1.77 µM (inactive) with MDA-N; 21.5 µM (inactive) in the experiment with SK-OV-3; 15.5 µM (inactive) in the experiment on HT-29; 18.3 µM (inactive) in the experiment on A549; 16.9 µM (inactive) in the experiment on M14. Moreover, the GI50 was 24.5 µM (inactive) in the experiment with CAKI-1; 16.2 µM (inactive) with SF-295; 14.5 µM (inactive) in the experiment with RPMI-8226; 26.3 µM (inactive) with Hs-578T; 16.9 µM (inactive) with KM12; 17.2 µM (inactive) with HOP-62. Besides, the GI50 in the experiment with SK-MEL-5 was 11.2 µM (inactive); in the experiment with MDA-MB-231, 15.8 µM (inactive); in the experiment with LOX IMVI it was 13.5 µM (inactive); in the experiment with DU-145, 16 µM (inactive); with UO-31, 15.9 µM (inactive); with NCI-H226, 20.4 µM (inactive). Further, in the experiment on SR, the GI50 was 30.1 µM (inactive).

`NC1=C(N2CCOCC2)C(=O)NC2=N/C(=C\c3ccccc3)C(=O)N21`: the GI50 in the experiment with OVCAR-8, in the experiment on MDA-N, with SK-OV-3, with HT-29, with A549 and in the experiment with M14 was > 100 µM (inactive) in each case. Also, the GI50 in the experiment with CAKI-1 was > 100 µM (inactive); with SF-295, 3.87 µM (inactive); with RPMI-8226, 47.4 µM (inactive); in the experiment with Hs-578T, > 100 µM (inactive); in the experiment on KM12 it was > 100 µM (inactive); with IGROV-1, > 100 µM (inactive). Also, the GI50 in the experiment with SK-MEL-5 is > 100 µM (inactive); with MDA-MB-231 it was > 100 µM (inactive); in the experiment with LOX IMVI it was > 100 µM (inactive); with DU-145, > 100 µM (inactive); in the experiment on UO-31 it was > 100 µM (inactive); with NCI-H226, 97.9 µM (inactive). In addition, the GI50 in the experiment with SR is 49.2 µM (inactive).

For the compound `NP(=O)(Oc1c2occc2cc2ccc(=O)oc12)N(CCCl)CCCl` (stereo not given), the GI50 was 73.6 µM (inactive) with OVCAR-8; > 100 µM (inactive) in the experiment on MDA-N; > 100 µM (inactive) in the experiment on HT-29; 62.2 µM (inactive) with A549; > 100 µM (inactive) with M14; > 100 µM (inactive) with CAKI-1. The GI50 in the experiment on SF-295 was > 100 µM (inactive); in the experiment on RPMI-8226, 89.7 µM (inactive); with Hs-578T, > 100 µM (inactive); with KM12 it was > 100 µM (inactive); in the experiment on IGROV-1, > 100 µM (inactive); with HOP-62 it was > 100 µM (inactive). The GI50 with SK-MEL-5 was 27.9 µM (inactive); with MDA-MB-231 it was > 100 µM (inactive); in the experiment on LOX IMVI, 37.6 µM (inactive); with DU-145, > 100 µM (inactive); with UO-31, > 100 µM (inactive); in the experiment on NCI-H226 it was 74.5 µM (inactive). For the same compound, the GI50 with SR was 38.5 µM (inactive).

On to `O=C1/C(=C/c2cccc(Br)c2)CCc2ccccc21`, for which the GI50 was 16.1 µM (inactive) with OVCAR-8; 10.8 µM (inactive) in the experiment with MDA-N; 22.8 µM (inactive) in the experiment on SK-OV-3; 10.9 µM (inactive) with HT-29; 16.4 µM (inactive) with A549; 15.8 µM (inactive) with M14. Also, the GI50 is 16 µM (inactive) in the experiment on CAKI-1; 15.2 µM (inactive) with SF-295; 2.99 µM (inactive) with RPMI-8226; 6.05 µM (inactive) in the experiment with Hs-578T; 4.02 µM (inactive) with KM12; 11.4 µM (inactive) in the experiment with IGROV-1. Also, the GI50 is 16 µM (inactive) in the experiment on HOP-62; 20.4 µM (inactive) in the experiment with MDA-MB-231; 12.8 µM (inactive) in the experiment with LOX IMVI; 17.2 µM (inactive) with DU-145; 13.8 µM (inactive) with UO-31; 15.2 µM (inactive) with NCI-H226. The GI50 in the experiment on SR was 4.1 µM (inactive).

`Nc1nc(O)c2ncn(C3C=CC(CO)C3)c2n1` (stereo not given): the GI50 with OVCAR-8, in the experiment on MDA-N, in the experiment on SK-OV-3, in the experiment on HT-29, with A549 and in the experiment with M14 was > 100 µM (inactive) throughout. Moreover, the GI50 with CAKI-1, with SF-295, in the experiment on RPMI-8226, in the experiment with Hs-578T, in the experiment with KM12 and in the experiment with IGROV-1 was > 100 µM (inactive) each time. The GI50 with HOP-62, with SK-MEL-5, in the experiment with MDA-MB-231, in the experiment with DU-145, in the experiment with UO-31 and in the experiment on NCI-H226 was > 100 µM (inactive) each time. The GI50 with SR is > 100 µM (inactive).

As to `CCOC(=O)NC(Nc1ccc(F)cc1)(C(=O)OCC)C(F)(F)F` (stereo not given), the GI50 with OVCAR-8 was 7.06 µM (inactive); with MDA-N, > 62.1 µM (inactive); with SK-OV-3, > 100 µM (inactive); in the experiment on HT-29, > 100 µM (inactive); in the experiment on A549, 10.5 µM (inactive); in the experiment with M14 it was 0.156 µM (active). Moreover, the GI50 was > 100 µM (inactive) in the experiment with CAKI-1; 8.38 µM (inactive) in the experiment on SF-295; 2.65 µM (inactive) in the experiment with RPMI-8226; > 100 µM (inactive) in the experiment on Hs-578T; 0.556 µM (active) with KM12; > 100 µM (inactive) with HOP-62. Besides, the GI50 with SK-MEL-5 was 0.192 µM (active); with MDA-MB-231 it was > 100 µM (inactive); with LOX IMVI it was 0.153 µM (active); with DU-145 it was > 21.5 µM (inactive); in the experiment on UO-31, 8.59 µM (inactive); in the experiment on NCI-H226, > 100 µM (inactive). Moreover, the GI50 in the experiment on SR was > 100 µM (inactive).

Regarding `Cc1nc2c(nc1C)-c1[nH]c3c(c1C(=O)C2=O)CCCC3=O`, the GI50 in the experiment on OVCAR-8 was 1.5 µM (inactive); with MDA-N, 0.685 µM (active); in the experiment on SK-OV-3 it was 2.4 µM (inactive); in the experiment with HT-29, 5.74 µM (inactive); with A549 it was 3.87 µM (inactive); in the experiment with M14, 1.77 µM (inactive). Besides, the GI50 in the experiment with SF-295 is 1.79 µM (inactive); in the experiment on RPMI-8226, 1.25 µM (inactive); in the experiment on Hs-578T it was 3.66 µM (inactive); in the experiment with KM12 it was 1.95 µM (inactive); in the experiment with IGROV-1, 2.55 µM (inactive); with HOP-62, 2.32 µM (inactive). Also, the GI50 with SK-MEL-5 was 1.49 µM (inactive); in the experiment with MDA-MB-231, 1.59 µM (inactive); with LOX IMVI, 0.957 µM (active); in the experiment with DU-145, 4.49 µM (inactive); with UO-31, 4.02 µM (inactive); in the experiment with NCI-H226 it was 1.62 µM (inactive). Further, in the experiment on SR, the GI50 was 2.08 µM (inactive).

For `O=S(=O)(O)c1ccc2c(/N=N/c3ccc(/N=N/c4ccccc4)cc3)c(O)c(S(=O)(=O)O)cc2c1`, the GI50 in the experiment with OVCAR-8, in the experiment on MDA-N, in the experiment on SK-OV-3, in the experiment on HT-29, with A549 and with M14 was > 100 µM (inactive) each time. Moreover, the GI50 in the experiment with CAKI-1, with SF-295, in the experiment with RPMI-8226, in the experiment on Hs-578T, with KM12 and in the experiment on IGROV-1 was > 100 µM (inactive) in each case. Moreover, the GI50 in the experiment with HOP-62, in the experiment with SK-MEL-5, with MDA-MB-231, in the experiment with DU-145, in the experiment with UO-31 and in the experiment on NCI-H226 was > 100 µM (inactive) each time. The GI50 with SR was > 100 µM (inactive).

Consider `Cc1nc2ccccc2[nH]/c1=N/Nc1ccccc1`, for which the GI50 in the experiment with OVCAR-8 was 20.3 µM (inactive); with MDA-N it was 19.5 µM (inactive); in the experiment with HT-29 it was 0.0417 µM (active); in the experiment with A549 it was 21.5 µM (inactive); with M14 it was 20.2 µM (inactive); in the experiment with CAKI-1 it was 27 µM (inactive). For the same compound, the GI50 with SF-295 was 18.6 µM (inactive); in the experiment with RPMI-8226, 8.2 µM (inactive); in the experiment with Hs-578T it was 31.1 µM (inactive); in the experiment on KM12, 14.5 µM (inactive); with IGROV-1 it was 3.73 µM (inactive); in the experiment with HOP-62, 23.3 µM (inactive). Besides, the GI50 in the experiment with SK-MEL-5 was 14 µM (inactive); in the experiment on MDA-MB-231, 28 µM (inactive); in the experiment with LOX IMVI, 23.3 µM (inactive); in the experiment on DU-145 it was 22.7 µM (inactive); in the experiment on UO-31, 18.8 µM (inactive); in the experiment with NCI-H226, 18.3 µM (inactive). In the experiment on SR, the GI50 is 19.3 µM (inactive).
